Assay results taken from patent publication US8192962B2, “Processes for detecting toxic substances” (Daikin Industries, Ltd., priority 2001, dated 2012).

Tested on: Genes belonging to other category
Test: DNA chip mRNA expression in yeast, genes belonging to other category (Table 9)
Format: cell-based, Saccharomyces cerevisiae S288C
In short: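 Cells were grown at 25° C. in YPD, treated at logarithmic phase for 2 h with a chemical at a concentration inhibiting growth but not causing death, and compared with untreated cultures. Labeled cDNA was hybridized to a DNA chip carrying all yeast genes, and the expression ratio was taken from scanner fluorescence.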

Substance: Na2As [(1)]
- The level of expressed mRNA in the presence of chemical substance/The level of expressed mRNA in the absence of chemical substance (yeast gene YAR010C): 0.8
- The level of expressed mRNA in the presence of chemical substance/The level of expressed mRNA in the absence of chemical substance (yeast gene YBL005W-A): 1.0
- The level of expressed mRNA in the presence of chemical substance/The level of expressed mRNA in the absence of chemical substance (yeast gene YBL041W): 1.2
- The level of expressed mRNA in the presence of chemical substance/The level of expressed mRNA in the absence of chemical substance (yeast gene YBL043W): 1.2
- The level of expressed mRNA in the presence of chemical substance/The level of expressed mRNA in the absence of chemical substance (yeast gene YBL078C): 2.3
- The level of expressed mRNA in the presence of chemical substance/The level of expressed mRNA in the absence of chemical substance (yeast gene YBR214W): 0.9
- The level of expressed mRNA in the presence of chemical substance/The level of expressed mRNA in the absence of chemical substance (yeast gene YCL020W): 1.1
- The level of expressed mRNA in the presence of chemical substance/The level of expressed mRNA in the absence of chemical substance (yeast gene YCL027W): 0.7
- The level of expressed mRNA in the presence of chemical substance/The level of expressed mRNA in the absence of chemical substance (yeast gene YCR004C): 1.7
- The level of expressed mRNA in the presence of chemical substance/The level of expressed mRNA in the absence of chemical substance (yeast gene YCR071C): 1.1
- The level of expressed mRNA in the presence of chemical substance/The level of expressed mRNA in the absence of chemical substance (yeast gene YCR088W): 0.9
- The level of expressed mRNA in the presence of chemical substance/The level of expressed mRNA in the absence of chemical substance (yeast gene YDL008W): 1.1
- The level of expressed mRNA in the presence of chemical substance/The level of expressed mRNA in the absence of chemical substance (yeast gene YDL238C): 0.7
- The level of expressed mRNA in the presence of chemical substance/The level of expressed mRNA in the absence of chemical substance (yeast gene YDR055W): 1.7
- The level of expressed mRNA in the presence of chemical substance/The level of expressed mRNA in the absence of chemical substance (yeast gene YDR084C): 0.9
- The level of expressed mRNA in the presence of chemical substance/The level of expressed mRNA in the absence of chemical substance (yeast gene YDR085C): 1.9
- The level of expressed mRNA in the presence of chemical substance/The level of expressed mRNA in the absence of chemical substance (yeast gene YDR104C): 0.8
- The level of expressed mRNA in the presence of chemical substance/The level of expressed mRNA in the absence of chemical substance (yeast gene YDR115W): 1.3
- The level of expressed mRNA in the presence of chemical substance/The level of expressed mRNA in the absence of chemical substance (yeast gene YDR259C): 1.4
- The level of expressed mRNA in the presence of chemical substance/The level of expressed mRNA in the absence of chemical substance (yeast gene YDR315C): 1.0
- The level of expressed mRNA in the presence of chemical substance/The level of expressed mRNA in the absence of chemical substance (yeast gene YDR358W): 0.7
- The level of expressed mRNA in the presence of chemical substance/The level of expressed mRNA in the absence of chemical substance (yeast gene YDR388W): 0.7
- The level of expressed mRNA in the presence of chemical substance/The level of expressed mRNA in the absence of chemical substance (yeast gene YDR432W): 0.5
- The level of expressed mRNA in the presence of chemical substance/The level of expressed mRNA in the absence of chemical substance (yeast gene YDR481C): 0.7
- The level of expressed mRNA in the presence of chemical substance/The level of expressed mRNA in the absence of chemical substance (yeast gene YDR510W): 1.0
- The level of expressed mRNA in the presence of chemical substance/The level of expressed mRNA in the absence of chemical substance (yeast gene YEL042W): 0.6
- The level of expressed mRNA in the presence of chemical substance/The level of expressed mRNA in the absence of chemical substance (yeast gene YEL066W): 2.0
- The level of expressed mRNA in the presence of chemical substance/The level of expressed mRNA in the absence of chemical substance (yeast gene YER039C): 1.0
- The level of expressed mRNA in the presence of chemical substance/The level of expressed mRNA in the absence of chemical substance (yeast gene YER107C): 0.9
- The level of expressed mRNA in the presence of chemical substance/The level of expressed mRNA in the absence of chemical substance (yeast gene YER130C): 0.9
- The level of expressed mRNA in the presence of chemical substance/The level of expressed mRNA in the absence of chemical substance (yeast gene YFL022C): 0.8
- The level of expressed mRNA in the presence of chemical substance/The level of expressed mRNA in the absence of chemical substance (yeast gene YFL028C): 1.2
- The level of expressed mRNA in the presence of chemical substance/The level of expressed mRNA in the absence of chemical substance (yeast gene YFL043C): 1.0
- The level of expressed mRNA in the presence of chemical substance/The level of expressed mRNA in the absence of chemical substance (yeast gene YGL158W): 1.1
- The level of expressed mRNA in the presence of chemical substance/The level of expressed mRNA in the absence of chemical substance (yeast gene YGL229C): 0.6
- The level of expressed mRNA in the presence of chemical substance/The level of expressed mRNA in the absence of chemical substance (yeast gene YGR136W): 0.9
- The level of expressed mRNA in the presence of chemical substance/The level of expressed mRNA in the absence of chemical substance (yeast gene YGR189C): 1.1
- The level of expressed mRNA in the presence of chemical substance/The level of expressed mRNA in the absence of chemical substance (yeast gene YGR213C): 5.4
- The level of expressed mRNA in the presence of chemical substance/The level of expressed mRNA in the absence of chemical substance (yeast gene YGR257C): 0.7
- The level of expressed mRNA in the presence of chemical substance/The level of expressed mRNA in the absence of chemical substance (yeast gene YHR004C): 0.9
- The level of expressed mRNA in the presence of chemical substance/The level of expressed mRNA in the absence of chemical substance (yeast gene YHR071W): 1.5
- The level of expressed mRNA in the presence of chemical substance/The level of expressed mRNA in the absence of chemical substance (yeast gene YHR139C): 3.0
- The level of expressed mRNA in the presence of chemical substance/The level of expressed mRNA in the absence of chemical substance (yeast gene YHR142W): 1.5
- The level of expressed mRNA in the presence of chemical substance/The level of expressed mRNA in the absence of chemical substance (yeast gene YIL123W): 1.0
- The level of expressed mRNA in the presence of chemical substance/The level of expressed mRNA in the absence of chemical substance (yeast gene YIL140W): 0.7
- The level of expressed mRNA in the presence of chemical substance/The level of expressed mRNA in the absence of chemical substance (yeast gene YJL073W): 0.8
- The level of expressed mRNA in the presence of chemical substance/The level of expressed mRNA in the absence of chemical substance (yeast gene YJL089W): 1.1
- The level of expressed mRNA in the presence of chemical substance/The level of expressed mRNA in the absence of chemical substance (yeast gene YJL116C): 0.9
- The level of expressed mRNA in the presence of chemical substance/The level of expressed mRNA in the absence of chemical substance (yeast gene YJR004C): 0.2
- The level of expressed mRNA in the presence of chemical substance/The level of expressed mRNA in the absence of chemical substance (yeast gene YJR086W): 1.2
